Experimental data: patent US20230085307A1, “PYRIDAZINONE COMPOUND AND HERBICIDE” (NISSAN CHEMICAL CORPORATION, priority 2019, published 2023)

How the values were obtained:
late watergrass = test: Test Example 1: herbicidal activity, application before weed generation under submerged conditions (Table 16, symbol A); assay type: in vivo, late watergrass (Echinochloa oryzicola); settings: 320 g/ha applied herbicide
Summary of the method: (§1)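 Submerged Wagner pots (alluvial soil, 4 cm water) sown with weed seeds and planted with 2.5-leaf rice seedlings; emulsifiable concentrate diluted in water applied to water surface on sowing day. Held in greenhouse at 25-30 °C; injury scored 0-5 by herbicidal rate after three weeks.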

Japanese bulrush = test: Test Example 1: herbicidal activity, application before weed generation under submerged conditions (Table 16, symbol B); assay type: in vivo, Japanese bulrush (Schoenoplectus juncoides); settings: 320 g/ha applied herbicide
Summary of the method: as §1

oval-leafed pondweed = test: Test Example 1: herbicidal activity, application before weed generation under submerged conditions (Table 16, symbol C); assay type: in vivo, oval-leafed pondweed (Monochoria vaginalis); settings: 320 g/ha applied herbicide
Summary of the method: as §1

barnyard grass [1] = test: Test Example 3: herbicidal effect by foliage application, Wagner pot (Table 18, symbol H); assay type: in vivo, barnyard grass (Echinochloa crus-galli); settings: amount of applied herbicide 320 g/ha
Summary of the method: (§2)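 Plants were sown in alluvial soil held under 0.1–0.5 cm standing water and grown 14 days in a greenhouse at 25–30 °C. An emulsifiable formulation, water-diluted to the set dose, was then sprayed onto the foliage, and effects were scored three weeks later using previously defined criteria.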

Chinese sprangletop = test: Test Example 3: herbicidal effect by foliage application, Wagner pot (Table 18, symbol D); assay type: in vivo, chinese sprangletop (Leptochloa chinensis); settings: amount of applied herbicide 320 g/ha
Summary of the method: as §2

rice flat sedge = test: Test Example 3: herbicidal effect by foliage application, Wagner pot (Table 18, symbol E); assay type: in vivo, rice flat sedge (Cyperus iria); settings: amount of applied herbicide 320 g/ha
Summary of the method: as §2

Italian ryegrass = test: Test Example 4: herbicidal effect by soil treatment (Table 19, symbol K); assay type: in vivo, Italian ryegrass (Lolium multiflorum); settings: amount of applied herbicide 320 g/ha
Summary of the method: (§3)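 Seeds were sown in sterilized diluvial soil and covered with about 1.5 cm of soil. An emulsion formulation diluted with water to a predetermined herbicide amount was sprayed evenly onto the soil surface. Plants grew in a greenhouse at 25° C. to 30° C., and the effect was scored three weeks after application using criteria from an earlier test.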

windgrass [2] = test: Test Example 4: herbicidal effect by soil treatment (Table 19, symbol L); assay type: in vivo, windgrass (Apera spica-venti); settings: amount of applied herbicide 320 g/ha
Summary of the method: as §3

lambsquarters = test: Test Example 4: herbicidal effect by soil treatment (Table 19, symbol O); assay type: in vivo, lambsquarters (Chenopodium album); settings: amount of applied herbicide 320 g/ha
Summary of the method: as §3

chickweed [3] = test: Test Example 4: herbicidal effect by soil treatment (Table 19, symbol P); assay type: in vivo, common chickweed (Stellaria media); settings: amount of applied herbicide 320 g/ha
Summary of the method: as §3

persian speedwell = test: Test Example 4: herbicidal effect by soil treatment (Table 19, symbol R); assay type: in vivo, Persian speedwell (Veronica persica); settings: amount of applied herbicide 320 g/ha
Summary of the method: as §3

southern crabgrass = test: Test Example 5: herbicidal effect by foliage application, plastic box (Table 20, symbol F); assay type: in vivo, southern crabgrass (Digitaria ciliaris); settings: foliage application, 320 g/ha, evaluated three weeks after application
Summary of the method: (§4)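 Plants sown in sterilized diluvial soil and grown 14 days in a greenhouse at 25° C to 30° C, then sprayed on the foliage with the compound's emulsion diluted in water to a predetermined herbicide amount. Injury to weeds and crops scored three weeks after application on a visual rating scale.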

barnyard grass [4] = test: Test Example 5: herbicidal effect by foliage application, plastic box (Table 20, symbol H); assay type: in vivo, barnyard grass (Echinochloa crus-galli); settings: foliage application, 320 g/ha, evaluated three weeks after application
Summary of the method: as §4

wild oat = test: Test Example 5: herbicidal effect by foliage application, plastic box (Table 20, symbol I); assay type: in vivo, wild oat (Avena fatua); settings: foliage application, 320 g/ha, evaluated three weeks after application
Summary of the method: as §4

blackgrass = test: Test Example 5: herbicidal effect by foliage application, plastic box (Table 20, symbol J); assay type: in vivo, blackgrass (Alopecurus myosuroides); settings: foliage application, 320 g/ha, evaluated three weeks after application
Summary of the method: as §4

windgrass [5] = test: Test Example 5: herbicidal effect by foliage application, plastic box (Table 20, symbol L); assay type: in vivo, windgrass (Apera spica-venti); settings: foliage application, 320 g/ha, evaluated three weeks after application
Summary of the method: as §4

velvetleaf = test: Test Example 5: herbicidal effect by foliage application, plastic box (Table 20, symbol M); assay type: in vivo, velvetleaf (Abutilon theophrasti); settings: foliage application, 320 g/ha, evaluated three weeks after application
Summary of the method: as §4

redroot pigweed = test: Test Example 5: herbicidal effect by foliage application, plastic box (Table 20, symbol N); assay type: in vivo, redroot pigweed (Amaranthus retroflexus); settings: foliage application, 320 g/ha, evaluated three weeks after application
Summary of the method: as §4

chickweed [6] = test: Test Example 5: herbicidal effect by foliage application, plastic box (Table 20, symbol P); assay type: in vivo, common chickweed (Stellaria media); settings: foliage application, 320 g/ha, evaluated three weeks after application
Summary of the method: as §4

Row | SMILES | Herbicidal effect on A: late watergrass (grade 0-5) (late watergrass) | Herbicidal effect on B: Japanese bulrush (grade 0-5) (Japanese bulrush) | Herbicidal effect on C: oval-leafed pondweed (grade 0-5) (oval-leafed pondweed) | herbicidal effect on H: barnyard grass (barnyard grass [1]) | herbicidal effect on D: Chinese sprangletop (Chinese sprangletop) | herbicidal effect on E: rice flat sedge (rice flat sedge) | K: Italian ryegrass, herbicidal effect rating (Italian ryegrass) | L: windgrass, herbicidal effect rating (windgrass [2]) | O: lambsquarters, herbicidal effect rating (lambsquarters) | P: chickweed, herbicidal effect rating (chickweed [3]) | R: persian speedwell, herbicidal effect rating (persian speedwell) | herbicidal effect on F: southern crabgrass (criteria 0-5) (southern crabgrass) | herbicidal effect on H: barnyard grass (criteria 0-5) (barnyard grass [4]) | herbicidal effect on I: wild oat (criteria 0-5) (wild oat) | herbicidal effect on J: blackgrass (criteria 0-5) (blackgrass) | herbicidal effect on L: windgrass (criteria 0-5) (windgrass [5]) | herbicidal effect on M: velvetleaf (criteria 0-5) (velvetleaf) | herbicidal effect on N: redroot pigweed (criteria 0-5) (redroot pigweed) | herbicidal effect on P: chickweed (criteria 0-5) (chickweed [6]) | further results
1 | CCc1ccc(-c2sc3ccc(F)cc3c2-c2c(O)c(C)nn(C)c2=O)cc1 [2-207] | 2 (Herbicidal rate of 20% or more and less than 40%) | 4 (Herbicidal rate of 70% or more and less than 90%) | 3 (Herbicidal rate of 40% or more and less than 70%) | 4 (Herbicidal rate of 70% or more and less than 90%) | 5 (Herbicidal rate of 90% or more (almost completely withered)) | 5 (Herbicidal rate of 90% or more (almost completely withered)) | 4 (Herbicidal rate of 70% or more and less than 90%) | 3 (Herbicidal rate of 40% or more and less than 70%) | 5 (Herbicidal rate of 90% or more (almost completely withered)) | 3 (Herbicidal rate of 40% or more and less than 70%) | 5 (Herbicidal rate of 90% or more (almost completely withered)) | 4 (Herbicidal rate of 70% or more and less than 90%) | 4 (Herbicidal rate of 70% or more and less than 90%) | 3 (Herbicidal rate of 40% or more and less than 70%) | 4 (Herbicidal rate of 70% or more and less than 90%) | 4 (Herbicidal rate of 70% or more and less than 90%) | 5 (Herbicidal rate of 90% or more (almost completely withered)) | 5 (Herbicidal rate of 90% or more (almost completely withered)) | 5 (Herbicidal rate of 90% or more (almost completely withered)) | –
2 | Cc1nn(C)c(=O)c(-c2c(-c3cccc(OCC(C)C)c3)sc3ccc(F)cc23)c1O [2-221] | 5 (Herbicidal rate of 90% or more (almost completely withered)) | 5 (Herbicidal rate of 90% or more (almost completely withered)) | 5 (Herbicidal rate of 90% or more (almost completely withered)) | 5 (Herbicidal rate of 90% or more (almost completely withered)) | 5 (Herbicidal rate of 90% or more (almost completely withered)) | 5 (Herbicidal rate of 90% or more (almost completely withered)) | 4 (Herbicidal rate of 70% or more and less than 90%) | 3 (Herbicidal rate of 40% or more and less than 70%) | 4 (Herbicidal rate of 70% or more and less than 90%) | 3 (Herbicidal rate of 40% or more and less than 70%) | 5 (Herbicidal rate of 90% or more (almost completely withered)) | 5 (Herbicidal rate of 90% or more (almost completely withered)) | 5 (Herbicidal rate of 90% or more (almost completely withered)) | 5 (Herbicidal rate of 90% or more (almost completely withered)) | 5 (Herbicidal rate of 90% or more (almost completely withered)) | 5 (Herbicidal rate of 90% or more (almost completely withered)) | 5 (Herbicidal rate of 90% or more (almost completely withered)) | 5 (Herbicidal rate of 90% or more (almost completely withered)) | 5 (Herbicidal rate of 90% or more (almost completely withered)) | –
3 | Cc1nn(C)c(=O)c(-c2c(-c3cccc(OC(C)(C)C)c3)sc3ccc(F)cc23)c1O [2-223] | 4 (Herbicidal rate of 70% or more and less than 90%) | 4 (Herbicidal rate of 70% or more and less than 90%) | 2 (Herbicidal rate of 20% or more and less than 40%) | 5 (Herbicidal rate of 90% or more (almost completely withered)) | 3 (Herbicidal rate of 40% or more and less than 70%) | 4 (Herbicidal rate of 70% or more and less than 90%) | – | – | – | – | – | 3 (Herbicidal rate of 40% or more and less than 70%) | 4 (Herbicidal rate of 70% or more and less than 90%) | 1 (Herbicidal rate of 5% or more and less than 20%) | 0 (Herbicidal rate of 5% or less (almost no effect)) | 5 (Herbicidal rate of 90% or more (almost completely withered)) | 5 (Herbicidal rate of 90% or more (almost completely withered)) | 4 (Herbicidal rate of 70% or more and less than 90%) | 5 (Herbicidal rate of 90% or more (almost completely withered)) | herbicidal effect on K: Italian ryegrass (Italian ryegrass): 0 (Herbicidal rate of 5% or less (almost no effect)); herbicidal effect on L: windgrass (windgrass [2]): 0 (Herbicidal rate of 5% or less (almost no effect)); herbicidal effect on O: lambsquarters (lambsquarters): 3 (Herbicidal rate of 40% or more and less than 70%); herbicidal effect on P: chickweed (chickweed [3]): 4 (Herbicidal rate of 70% or more and less than 90%); herbicidal effect on R: persian speedwell (persian speedwell): 4 (Herbicidal rate of 70% or more and less than 90%)
